± gives the standard deviation of the averaged measurements.
Legend:
[1] = compound: Cc1cn(-c2cc(NC(=O)c3ccc(C)c(Nc4nccc(-c5cccnc5)n4)c3)cc(C(F)(F)F)c2)cn1 [NILOTINIB]; assay: surviving fraction relative to DMSO-only wells; higher = less growth inhibition; conditions: exposure time: 5 days
Outline: (§1)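 At 250–500 cells per well in 384-well plates, log-phase tumour cell lines were seeded and, 24 hours on, exposed continuously for five days to inhibitors at 0.5, 1, 5, 10, 50, 100, 500 and 1000 nM. Viability readout was CellTiter-Glo luminescence, reported as surviving fraction normalised to the median of DMSO-only wells.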

[2] = compound: Cn1c(=O)n(-c2ccc(C(C)(C)C#N)cc2)c2c3cc(-c4cnc5ccccc5c4)ccc3ncc21 [BEZ-235]; assay: as above; conditions: exposure time: 5 days
Outline: as §1

| Test System | surviving fraction ([1]; 0.5 nM) | surviving fraction ([1]; 1 nM) | surviving fraction ([1]; 5 nM) | surviving fraction ([1]; 10 nM) | surviving fraction ([1]; 50 nM) | surviving fraction ([1]; 100 nM) | surviving fraction ([1]; 500 nM) | surviving fraction ([1]; 1000 nM) | surviving fraction ([2]; 0.5 nM) | surviving fraction ([2]; 1 nM) | surviving fraction ([2]; 5 nM) | surviving fraction ([2]; 10 nM) | surviving fraction ([2]; 50 nM) | surviving fraction ([2]; 100 nM) | surviving fraction ([2]; 500 nM) | surviving fraction ([2]; 1000 nM) |
| --- | --- | --- | --- | --- | --- | --- | --- | --- | --- | --- | --- | --- | --- | --- | --- | --- |
| HU09 BONE | 0.958 ± 0.043 | 1.06 ± 0.1 | 0.999 ± 0.096 | 1.09 ± 0.051 | 0.861 ± 0.19 | 0.756 ± 0.067 | 0.481 ± 0.014 | 0.397 ± 0.075 | 1.04 ± 0.18 | 1.07 ± 0.059 | 1.19 ± 0.053 | 1.12 ± 0.1 | 0.572 ± 0.025 | 0.416 ± 0.025 | 0.181 ± 0.013 | 0.134 ± 0.006 |
| JIMT1 BREAST | 0.946 ± 0.041 | 0.955 ± 0.045 | 0.975 ± 0.039 | 0.964 ± 0.07 | 0.931 ± 0.054 | 0.958 ± 0.086 | 0.97 ± 0.045 | 0.924 ± 0.054 | 1.03 ± 0.031 | 0.992 ± 0.024 | 0.983 ± 0.0095 | 0.992 ± 0.019 | 0.732 ± 0.03 | 0.464 ± 0.04 | 0.21 ± 0.013 | 0.194 ± 0.009 |
| SG31 HEADNECK | 1.24 ± 0.13 | 1.2 ± 0.13 | 1.08 ± 0.11 | 1.24 ± 0.21 | 1.14 ± 0.081 | 1.26 ± 0.17 | 1.02 ± 0.15 | 1.16 ± 0.13 | 1.1 ± 0.15 | 1.138 ± 0.0095 | 0.946 ± 0.091 | 1.02 ± 0.15 | 0.602 ± 0.088 | 0.569 ± 0.042 | 0.354 ± 0.029 | 0.289 ± 0.028 |
| JURKAT HAEMATOPOIETIC AND LYMPHOID TISSUE | 1.1 ± 0.025 | 1.1 ± 0.027 | 1.07 ± 0.029 | 1.06 ± 0.021 | 1.042 ± 0.009 | 1.02 ± 0.044 | 1.04 ± 0.026 | 0.91 ± 0.057 | 1.05 ± 0.03 | 1.07 ± 0.032 | 1.05 ± 0.024 | 1.05 ± 0.03 | 0.788 ± 0.021 | 0.582 ± 0.021 | 0.211 ± 0.0053 | 0.056 ± 0.001 |
| CASKI CERVIX | 0.914 ± 0.026 | 0.993 ± 0.024 | 1.01 ± 0.063 | 0.96 ± 0.045 | 0.88 ± 0.063 | 0.785 ± 0.035 | 0.764 ± 0.13 | 0.77 ± 0.075 | 0.872 ± 0.028 | 0.922 ± 0.016 | 0.896 ± 0.065 | 0.882 ± 0.081 | 0.452 ± 0.021 | 0.292 ± 0.0061 | 0.127 ± 0.0064 | 0.096 ± 0.0036 |
| SUM149.B1*.S BREAST | 1.09 ± 0.026 | 1.08 ± 0.051 | 1.163 ± 0.0038 | 1.12 ± 0.031 | 1.1 ± 0.046 | 1.13 ± 0.018 | 1.18 ± 0.035 | 1.11 ± 0.036 | 1.11 ± 0.041 | 1.12 ± 0.049 | 1.14 ± 0.038 | 1.12 ± 0.022 | 1.039 ± 0.0098 | 0.969 ± 0.072 | 0.376 ± 0.028 | 0.21 ± 0.0038 |
| 143B BONE | 1.09 ± 0.076 | 1.07 ± 0.043 | 1.13 ± 0.1 | 1.11 ± 0.081 | 1.14 ± 0.12 | 1.14 ± 0.11 | 1.1 ± 0.11 | 1.11 ± 0.11 | 1.03 ± 0.047 | 1.04 ± 0.047 | 1.031 ± 0.0028 | 1.0385 ± 0.00071 | 0.852 ± 0.033 | 0.735 ± 0.017 | 0.36 ± 0.017 | 0.336 ± 0.0028 |
| MDAMB436 BREAST | 0.905 ± 0.076 | 1 ± 0.088 | 1 ± 0.017 | 0.964 ± 0.057 | 0.82 ± 0.087 | 0.915 ± 0.033 | 0.904 ± 0.03 | 0.78 ± 0.051 | 0.94 ± 0.084 | 0.898 ± 0.085 | 0.876 ± 0.078 | 0.852 ± 0.088 | 0.545 ± 0.016 | 0.51 ± 0.047 | 0.392 ± 0.022 | 0.356 ± 0.013 |
| SNU475 LIVER | 1.05 ± 0.028 | 1 ± 0.036 | 1.01 ± 0.031 | 1.04 ± 0.017 | 0.941 ± 0.026 | 0.939 ± 0.03 | 0.953 ± 0.024 | 0.858 ± 0.076 | 1.03 ± 0.038 | 1 ± 0.07 | 0.921 ± 0.036 | 0.932 ± 0.039 | 0.423 ± 0.018 | 0.285 ± 0.0051 | 0.137 ± 0.015 | 0.148 ± 0.0081 |
| HELA CERVIX | 1.05 ± 0.016 | 1.03 ± 0.053 | 1.09 ± 0.034 | 1 ± 0.033 | 1.09 ± 0.079 | 1.06 ± 0.073 | 1.15 ± 0.074 | 1.091 ± 0.0094 | 1.05 ± 0.087 | 1.09 ± 0.069 | 1.112 ± 0.0048 | 1.02 ± 0.035 | 1.12 ± 0.061 | 1.2 ± 0.028 | 0.7 ± 0.019 | 0.4533 ± 0.0038 |
| 93VU HEADNECK | 1.01 ± 0.03 | 0.97 ± 0.013 | 1.1 ± 0.1 | 1.14 ± 0.058 | 0.964 ± 0.049 | 1.03 ± 0.088 | 0.938 ± 0.076 | 0.872 ± 0.057 | 0.972 ± 0.12 | 0.985 ± 0.13 | 1.1 ± 0.11 | 1.08 ± 0.059 | 0.921 ± 0.035 | 0.71 ± 0.1 | 0.308 ± 0.053 | 0.334 ± 0.043 |
| ZR751 BREAST | 1.05 ± 0.13 | 1.01 ± 0.11 | 1.069 ± 0.0042 | 1.03 ± 0.14 | 0.895 ± 0.03 | 0.834 ± 0.14 | 0.826 ± 0.058 | 0.66 ± 0.073 | 1.03 ± 0.1 | 1.03 ± 0.23 | 0.912 ± 0.12 | 0.907 ± 0.093 | 0.725 ± 0.063 | 0.519 ± 0.1 | 0.226 ± 0.011 | 0.176 ± 0.011 |
| S68 BREAST | 1 ± 0.3 | 1.1 ± 0.14 | 1.34 ± 0.29 | 1.06 ± 0.32 | 0.643 ± 0.041 | 0.846 ± 0.29 | 0.449 ± 0.18 | 0.544 ± 0.2 | 0.792 ± 0.081 | 1.01 ± 0.26 | 1.07 ± 0.13 | 1.06 ± 0.22 | 0.574 ± 0.13 | 0.273 ± 0.029 | 0.0663 ± 0.0023 | 0.0637 ± 0.0023 |
| SCC003 HEADNECK | 1.1 ± 0.048 | 1.03 ± 0.14 | 1.1 ± 0.037 | 1.04 ± 0.02 | 0.873 ± 0.38 | 1 ± 0.23 | 0.906 ± 0.24 | 0.995 ± 0.13 | 1.06 ± 0.089 | 1.11 ± 0.036 | 1.08 ± 0.13 | 1.08 ± 0.11 | 0.776 ± 0.12 | 0.717 ± 0.093 | 0.366 ± 0.02 | 0.289 ± 0.04 |
| RDES SOFT TISSUE | 1.14 ± 0.097 | 1.25 ± 0.058 | 0.966 ± 0.14 | 1.14 ± 0.14 | 0.847 ± 0.16 | 0.78 ± 0.026 | 0.821 ± 0.2 | 0.944 ± 0.13 | 1.26 ± 0.072 | 1.18 ± 0.21 | 1.17 ± 0.094 | 1.24 ± 0.14 | 1.48 ± 0.18 | 1.14 ± 0.29 | 0.453 ± 0.089 | 0.2 ± 0.03 |
| VCAP PROSTATE | 0.999 ± 0.1 | 1.03 ± 0.088 | 1.16 ± 0.13 | 1.06 ± 0.076 | 1.02 ± 0.075 | 0.966 ± 0.073 | 0.952 ± 0.14 | 0.862 ± 0.067 | 1.08 ± 0.1 | 0.994 ± 0.09 | 1.12 ± 0.082 | 1.13 ± 0.12 | 0.902 ± 0.1 | 0.867 ± 0.056 | 0.422 ± 0.053 | 0.402 ± 0.0052 |

Reference: the supplement of paper PMC6045584
